Legend:
[1] = Human whole blood (WB) assay; format: in vitro ADME; details: pH 7.4, 1 μM compound, 37° C., average of 2 to 4 tests, read-out: WB assay, half-life T½
Experimental: Incubations of test compounds in DMSO, diluted with phosphate buffer, pH 7.4, at 1 μM were carried out with human whole blood. The percentage of organic solvent in the incubations was 1%. The incubations were performed at 37° C. with aliquots taken at 0, 15, 30, 60 and 120 minutes, and reactions were terminated by addition of methanol containing analytical internal standard (IS). The results were expressed as half-life (T½) in minutes calculated from the rate constant (k) (min^−1) of test compound depletion.

[2] = tested on: TNF-α release in human peripheral blood mononuclear cells (PBMC); experiment: TNF-α release; details: 18 h, read-out: TNF-α release assay, IC50
From the text: Results are expressed as IC50 values (nM) calculated from inhibition curves using as positive controls the secretion in LPS stimulated wells and as negative controls the secretion in unstimulated cells.

[3] = Keratinocyte stability (KC) assay; format: in vitro ADME; details: pH 7.4; plated human keratinocytes, 1 μM compound, 37° C.; average of 2 to 4 tests; read-out: KC assay, half-life T½
Experimental: Incubations of test compounds in DMSO, diluted with growing medium, pH ˜7.4, at 1 μM were carried out with plated human keratinocytes. The percentage of organic solvent in the incubations was 0.5%. The incubations were performed at 37° C. with aliquots taken at 0, 60, 120, 240 and 1440 minutes, and reactions were terminated by addition of methanol containing analytical internal standard (IS). The results were expressed as half-life (T½) in minutes calculated from the rate constant (k) (min^−1) of test compound depletion.

For `CC[C@H](C)OC(=O)C1(c2nc3c(OC)ccc(-c4ccc5c(c4)COC5=O)n3n2)CC1` [Compound 1, [(1S)-1-Methylpropyl]1-[8-methoxy-5-(1-oxo-3H-isobenzofuran-5-yl)-[1,2,4]triazolo-[1,5-a]pyridin-2-yl]cyclopropanecarboxylate], the half-life at 1 μM [1] was 10.7 min, the IC50 [2] was 12.8 nM and the half-life at 1 μM [3] was over 720 min.
Compound `CC[C@@H](C)OC(=O)C1(c2nc3c(OC)ccc(-c4ccc5c(c4)COC5=O)n3n2)CC1` [Compound 2, [(1R)-1-Methylpropyl]1-[8-methoxy-5-(1-oxo-3H-isobenzofuran-5-yl)-[1,2,4]triazolo-[1,5-a]pyridin-2-yl]cyclopropanecarboxylate] has a half-life at 1 μM [1] of 12.6 min, an IC50 [2] of 15.7 nM and a half-life at 1 μM [3] of over 720 min.
In the case of `COc1ccc(-c2ccc3c(c2)COC3=O)n2nc(C3(C(=O)OCC(C)C)CC3)nc12` [Compound 3, [2-Methylpropyl]1-[8-methoxy-5-(1-oxo-3H-isobenzofuran-5-yl)-[1,2,4]triazolo[1,5-a]pyridin-2-yl]cyclopropanecarboxylate], the half-life at 1 μM [1] is reported as 16.6 min and the half-life at 1 μM [3] is reported as over 720 min.
For `COc1ccc(-c2ccc3c(c2)COC3=O)n2nc(C3(C(=O)OC(C)(C)C)CC3)nc12` [Compound 4, Tert-butyl 1-[8-methoxy-5-(1-oxo-3H-isobenzofuran-5-yl)-[1,2,4]triazolo[1,5-a]pyridin-2-yl]cyclopropanecarboxylate], the half-life at 1 μM [1] was under 11.2 min, the IC50 [2] was 15.3 nM and the half-life at 1 μM [3] was over 720 min.

— patent US9181248B2, “[1,2,4]triazolopyridines and their use as phosphodiesterase inhibitors” (LEO Pharma A/S, priority 2011, dated 2015)
